Values belong to the compound of their own block, whether it stands above or below them. The source made the active and inactive calls. The rule behind the calls is not given here.
What was measured:
[1] = system: PC-9; test: Antiproliferative activity against human PC-9 cells assessed as inhibition of cell proliferation incubated for 72 hrs by MTT assay; type: functional, cell-based; conditions: for IC50: PC-9, 72 h
[2] = Selectivity index, ratio of IC50 for cytotoxicity against human MRC5 cells assessed as inhibition of cell proliferation to IC50 for antiproliferative activity against human NCI-H1975 cells assessed as inhibition of cell proliferation; type: toxicity, cell-based; conditions: MRC5 cells and NCI-H1975 cells, read-out: Ratio IC50
[3] = system: A549; test: Antiproliferative activity against human A549 cells assessed as inhibition of cell proliferation incubated for 72 hrs by MTT assay; type: functional, cell-based; conditions: for IC50: A549, 72 h
[4] = system: NCI-H1975; test: Antiproliferative activity against human NCI-H1975 cells assessed as inhibition of cell proliferation incubated for 72 hrs by MTT assay; type: functional, cell-based; conditions: for IC50: NCI-H1975, 72 h
[5] = Cytotoxicity against human MRC5 cells assessed as inhibition of cell proliferation incubated for 72 hrs by MTT assay; type: toxicity, cell-based
[6] = system: NCI-H1975; test: Inhibition of cell migration in human NCI-H1975 cells assessed as inhibition of wound closure measured at 24 to 48 hrs by wound healing assay; type: functional, cell-based; conditions: dose 1.75-7 µM, time 24-48 hrs
[7] = system: NCI-H1975; test: Effect on Vimentin expression level in human NCI-H1975 cells incubated for 48 hrs by Western blot analysis; type: functional, cell-based; conditions: dose <= 7.0 µM
[8] = molecular target: Inactive tyrosine-protein kinase transmembrane receptor ROR1 (Homo sapiens) (UniProt Q01973); test: Inhibition of ROR1 phosphorylation in human NCI-H1975 cells upto 7 uM incubated for 48 hrs by Western blot analysis; type: cell-based
[9] = system: NCI-H1975; test: Induction of cell cycle arrest in human NCI-H1975 cells assessed as reduction in cyclin-D1 expression incubated for 24 hrs by Western blot analysis; type: functional, cell-based; conditions: dose 1.75-7 µM
[10] = system: NCI-H1975; test: Inhibition of SRC phosphorylation in human NCI-H1975 cells upto 7 uM incubated for 48 hrs by Western blot analysis; type: cell-based
[11] = Half life in male Sprague-Dawley rat at 10 mg/kg, po measured upto 24 hrs by LC-MS/MS analysis; type: ADME, organism-based; conditions: in vivo
[12] = AUC (0 to infinity) in male Sprague-Dawley rat at 10 mg/kg, po measured upto 24 hrs by LC-MS/MS analysis; type: ADME, organism-based; conditions: in vivo
[13] = system: NCI-H1975; test: Induction of cell cycle arrest in human NCI-H1975 cells assessed as reduction in CDK2 expression incubated for 24 hrs by Western blot analysis; type: functional, cell-based; conditions: dose 1.75-7 µM
[14] = system: NCI-H1975; test: Effect on N-cadherin expression level in human NCI-H1975 cells incubated for 48 hrs by Western blot analysis; type: functional, cell-based; conditions: dose <= 7.0 µM
[15] = Tmax in male Sprague-Dawley rat at 10 mg/kg, po measured upto 24 hrs by LC-MS/MS analysis; type: ADME, organism-based; conditions: in vivo
[16] = molecular target: Inactive tyrosine-protein kinase transmembrane receptor ROR1 (Homo sapiens) (UniProt Q01973); test: Binding affinity to ROR1 in human NCI-H1975 cells assessed as increase in thermal stability at 10 uM at 57 to 62 degreeC incubated for 4 hrs by CETSA analysis; type: cell-based
[17] = system: NCI-H1975; test: Induction of cell cycle arrest in human NCI-H1975 cells assessed as decrease in accumulation of cells at G2/M phase incubated for 24 hrs by PI staining based flow cytometry analysis; type: functional; conditions: dose 1.75-7 µM
[18] = system: NCI-H1975; test: Inhibition of cell migration in human NCI-H1975 cells assessed as inhibition of wound closure at 1.75 to 7 uM measured at 24 to 48 hrs by wound healing assay; type: functional, cell-based; conditions: dose 1.75-7 µM, time 24-48 hrs
[19] = molecular target: MAP kinase p38 (Homo sapiens) (UniProt O15264+Q15759+Q16539+P53778); test: Inhibition of p38 phosphorylation in human NCI-H1975 cells upto 7 uM incubated for 48 hrs by Western blot analysis; type: cell-based
[20] = system: NCI-H1975; test: Effect on E-cadherin expression level in human NCI-H1975 cells incubated for 48 hrs by Western blot analysis; type: functional, cell-based; conditions: dose <= 7.0 µM
[21] = system: NCI-H1975; test: Inhibition of cell migration in human NCI-H1975 cells assessed as inhibition of wound closure at 1.75 to 7 uM by wound healing assay; type: functional, cell-based; conditions: dose 1.75-7 µM, time 24-48 hrs
[22] = molecular target: Inactive tyrosine-protein kinase transmembrane receptor ROR1 (Homo sapiens) (UniProt Q01973); test: Binding affinity to ROR1 in human NCI-H1975 cells assessed as protection of pronase-mediated protein degradation preincubated with compound for 1 hr followed by pronase E addition and measured after 10 mins by DARTS assay; type: cell-based; conditions: dose <= 100.0 µM, time 70.0 min
[23] = MRT (0 to infinity) in male Sprague-Dawley rat at 10 mg/kg, po measured upto 24 hrs by LC-MS/MS analysis; type: ADME, organism-based; conditions: in vivo
[24] = system: NCI-H1975; test: Inhibition of colony formation in human NCI-H1975 cells assessed as decrease in number of colonies incubated for 72 hrs by crystal violet staining based assay; type: functional, cell-based; conditions: dose 1.75-7 µM
[25] = system: NCI-H1975; test: Anti-invasive activity against human NCI-H1975 cells assessed as reduction in number of invaded cells at 7 uM incubated for 24 hrs by crystal violet staining based light microscopic analysis; type: functional, cell-based
[26] = system: NCI-H1975; test: Effect on MMP2 expression level in human NCI-H1975 cells incubated for 48 hrs by Western blot analysis; type: functional, cell-based; conditions: dose <= 7.0 µM
[27] = system: NCI-H1975; test: Effect on ZEB1 expression level in human NCI-H1975 cells incubated for 48 hrs by Western blot analysis; type: functional, cell-based; conditions: dose <= 7.0 µM
[28] = Cmax in male Sprague-Dawley rat at 10 mg/kg, po measured upto 24 hrs by LC-MS/MS analysis; type: ADME, organism-based; conditions: in vivo
[29] = system: NCI-H1975; test: Induction of cell cycle arrest in human NCI-H1975 cells assessed as accumulation of cells at G1 phase incubated for 24 hrs by PI staining based flow cytometry analysis; type: functional; conditions: dose 1.75-7 µM
[30] = system: NCI-H1975; test: Antiproliferative activity against human NCI-H1975 cells assessed as suppression of cell growth incubated for 72 hrs by MTT assay; type: functional, cell-based; conditions: dose 7.0 µM
[31] = system: NCI-H1975; test: Induction of cell cycle arrest in human NCI-H1975 cells assessed as reduction in c-Myc expression incubated for 24 hrs by Western blot analysis; type: functional, cell-based; conditions: dose 1.75-7 µM

Inactive tyrosine-protein kinase transmembrane receptor ROR1 (Homo sapiens), sequence (Q01973 whole entry): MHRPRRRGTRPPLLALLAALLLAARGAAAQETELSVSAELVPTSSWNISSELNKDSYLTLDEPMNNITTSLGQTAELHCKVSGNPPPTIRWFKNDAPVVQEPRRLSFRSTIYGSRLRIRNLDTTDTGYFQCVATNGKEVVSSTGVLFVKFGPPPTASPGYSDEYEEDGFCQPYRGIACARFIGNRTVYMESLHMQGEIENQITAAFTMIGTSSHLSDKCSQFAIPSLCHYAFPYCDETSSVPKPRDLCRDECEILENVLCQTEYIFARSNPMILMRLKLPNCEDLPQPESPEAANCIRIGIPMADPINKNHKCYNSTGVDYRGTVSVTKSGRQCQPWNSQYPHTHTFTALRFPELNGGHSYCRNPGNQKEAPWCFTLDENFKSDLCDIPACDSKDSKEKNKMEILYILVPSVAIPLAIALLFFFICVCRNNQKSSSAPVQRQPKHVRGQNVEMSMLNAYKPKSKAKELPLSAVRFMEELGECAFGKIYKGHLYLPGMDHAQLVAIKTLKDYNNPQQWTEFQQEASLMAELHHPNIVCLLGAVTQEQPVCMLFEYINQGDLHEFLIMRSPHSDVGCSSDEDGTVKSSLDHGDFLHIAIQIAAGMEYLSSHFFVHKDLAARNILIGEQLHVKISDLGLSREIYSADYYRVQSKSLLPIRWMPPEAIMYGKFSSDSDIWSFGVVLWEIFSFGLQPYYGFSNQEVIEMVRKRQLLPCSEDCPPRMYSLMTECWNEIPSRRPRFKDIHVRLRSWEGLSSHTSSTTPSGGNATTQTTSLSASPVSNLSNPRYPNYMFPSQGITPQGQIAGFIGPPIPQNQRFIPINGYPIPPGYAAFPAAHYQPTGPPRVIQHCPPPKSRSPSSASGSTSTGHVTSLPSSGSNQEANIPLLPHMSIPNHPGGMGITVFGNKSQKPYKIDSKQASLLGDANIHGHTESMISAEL

IC50 [1]: > 40 µM | IC50 [3]: > 40 µM | IC50 [4]: 11.1 µM
SMILES: COCCNC(=O)c1cccc(-c2ccc3sc(NC(=O)C(C)(C)C)nc3c2)c1
selectivity ratio [2]: > 7.23 | IC50 at 72 h [5]: > 80 µM

IC50 [1]: 24.7 µM | IC50 [3]: > 40 µM | IC50 [4]: > 40 µM
SMILES: CC(=O)Nc1nc2cc(-c3cccc(C(=O)NCCC(C)C)c3)ccc2s1
IC50 at 72 h [5]: > 80 µM

IC50 [1]: > 40 µM | IC50 [3]: > 40 µM | IC50 [4]: > 40 µM
SMILES: COCCNC(=O)c1cccc(-c2ccc3sc(NC(C)=O)nc3c2)c1
IC50 at 72 h [5]: > 80 µM

IC50 [3]: 27.5 µM | IC50 [4]: 66.7 µM
SMILES: CNc1cccc(NC(=O)c2ccc(C)c(C#Cc3cnc4cccnn34)c2)c1

IC50 [1]: > 40 µM | IC50 [3]: > 40 µM | IC50 [4]: > 40 µM
SMILES: CC(=O)Nc1nc2cc(-c3cccc(C(=O)NCC4CC4)c3)ccc2s1
IC50 at 72 h [5]: > 80 µM

IC50 [1]: 21.8 µM | IC50 [3]: 27.6 µM | IC50 [4]: > 40 µM
SMILES: CC(C)(C)C(=O)Nc1nc2cc(-c3cccc(C(=O)NCC4CC4)c3)ccc2s1
IC50 at 72 h [5]: > 80 µM

IC50 [1]: > 40 µM | IC50 [3]: 31.4 µM | IC50 [4]: 8.16 µM
SMILES: CCCNC(=O)c1cccc(-c2ccc3sc(NC(=O)C(C)(C)C)nc3c2)c1
selectivity ratio [2]: > 9.8 | IC50 at 72 h [5]: > 80 µM

IC50 [1]: > 40 µM | IC50 [3]: > 40 µM | IC50 [4]: 17.7 µM
SMILES: COCCNC(=O)c1cccc(-c2ccc3sc(NC(=O)c4ccccc4)nc3c2)c1
selectivity ratio [2]: > 4.52 | IC50 at 72 h [5]: > 80 µM

IC50 [1]: > 40 µM | IC50 [3]: > 40 µM | IC50 [4]: 12.3 µM
SMILES: COc1ccc(CNC(=O)c2cccc(-c3ccc4sc(NC(=O)C(C)(C)C)nc4c3)c2)cc1
selectivity ratio [2]: > 6.52 | IC50 at 72 h [5]: > 80 µM

IC50 [1]: > 40 µM | IC50 [3]: > 40 µM | IC50 [4]: > 40 µM
SMILES: CCC(=O)Nc1nc2cc(-c3cccc(C(=O)NCC4CC4)c3)ccc2s1
IC50 at 72 h [5]: > 80 µM

IC50 [1]: 11.9 µM | IC50 [3]: > 40 µM | IC50 [4]: > 40 µM
SMILES: O=C(NCC1CC1)c1cccc(-c2ccc3sc(NC(=O)c4ccc(F)cc4)nc3c2)c1
IC50 at 72 h [5]: > 80 µM

IC50 [1]: > 40 µM | IC50 [3]: > 40 µM | IC50 [4]: 12.4 µM
SMILES: Cc1ccc(CNC(=O)c2cccc(-c3ccc4sc(NC(=O)C(C)(C)C)nc4c3)c2)cc1
selectivity ratio [2]: > 6.43 | IC50 at 72 h [5]: > 80 µM

IC50 [1]: 13.9 µM | IC50 [3]: > 40 µM | IC50 [4]: 4.4 µM
SMILES: CC(C)CCNC(=O)c1cccc(-c2ccc3sc(NC(=O)C(C)(C)C)nc3c2)c1
selectivity ratio [2]: > 18.2 | IC50 at 72 h [5]: > 80 µM

IC50 [1]: > 40 µM | IC50 [3]: > 40 µM | IC50 [4]: > 40 µM
SMILES: CCC(=O)Nc1nc2cc(-c3cccc(C(=O)NCCOC)c3)ccc2s1
IC50 at 72 h [5]: > 80 µM

IC50 [1]: > 40 µM | IC50 [3]: > 40 µM | IC50 [4]: > 40 µM
SMILES: CCC(=O)Nc1nc2cc(-c3cccc(C(=O)NCc4ccc(OC)cc4)c3)ccc2s1
IC50 at 72 h [5]: > 80 µM

IC50 [1]: > 40 µM | IC50 [3]: > 40 µM | IC50 [4]: > 40 µM
SMILES: Cc1ccc(CNC(=O)c2cccc(-c3ccc4sc(NC(=O)C5CCCCC5)nc4c3)c2)cc1
IC50 at 72 h [5]: > 80 µM

IC50 [1]: > 40 µM | IC50 [3]: > 40 µM | IC50 [4]: 9.35 µM
SMILES: CC(=O)Nc1nc2cc(-c3cccc(C(=O)NCc4ccc(F)cc4)c3)ccc2s1
selectivity ratio [2]: > 8.56 | IC50 at 72 h [5]: > 80 µM

IC50 [1]: 10.4 µM | IC50 [3]: > 40 µM | IC50 [4]: 6.06 µM
SMILES: COCOc1cc(OCOC)c2c(c1)O[C@@H](c1ccc(OC)cc1)CC2=O
selectivity ratio [2]: > 13.2 | IC50 at 72 h [5]: > 80 µM

IC50 [1]: > 40 µM | IC50 [3]: > 40 µM | IC50 [4]: > 40 µM
SMILES: CCCC(=O)Nc1nc2cc(-c3cccc(C(=O)NCCOC)c3)ccc2s1
IC50 at 72 h [5]: > 80 µM

inhibition [8]: Active | IC50 [1]: 8.11 µM | half-life [11]: 10 h | AUC(0-inf) [12]: 12400 ng·h/mL | Tmax [15]: 2 h | Activity [16]: Active | inhibition [19]: Active | IC50 [3]: 18.2 µM | IC50 [4]: 3.5 µM | Activity [22]: Dose-dependent-effect | MRT inf [23]: 18.7 h | Cmax [28]: 1120 ng/mL
SMILES: CC(C)CCNC(=O)c1cccc(-c2ccc3sc(NC(=O)c4ccc(F)cc4)nc3c2)c1
inhibition [6]: Dose-dependent-effect | Activity [7]: Dose-dependent-effect | Activity [9]: Dose-dependent-effect | inhibition [10]: Active | Activity ([1]; dose <= 40.0 µM): Dose-dependent-effect | Activity [13]: Dose-dependent-effect | Activity [14]: Dose-dependent-effect | Activity [17]: Dose-dependent-effect | inhibition [18]: Active | selectivity ratio [2]: > 22.9 | Activity ([3]; dose <= 40.0 µM): Dose-dependent-effect | Activity ([4]; dose <= 40.0 µM): Dose-dependent-effect | Activity [20]: Dose-dependent-effect | inhibition [21]: Time-dependent-effect | inhibition [24]: Dose-dependent-effect | Activity [25]: Active | Activity [26]: Dose-dependent-effect | Activity [27]: Dose-dependent-effect | IC50 at 72 h [5]: > 80 µM | Activity [29]: Dose-dependent-effect | Activity [30]: Dose-dependent-effect | Activity [31]: Dose-dependent-effect

IC50 [1]: 0.91 µM | IC50 [3]: 0.83 µM | IC50 [4]: 1.02 µM
SMILES: CC(=O)Nc1nc2cc(-c3ccc4ncn(Cc5ccccc5)c(=O)c4c3)ccc2[nH]1
selectivity ratio [2]: 1.83 | IC50 at 72 h [5]: 1.87 µM

— ChEMBL document CHEMBL6078662, “Discovery of 3-(2-aminobenzo[d]thiazol-5-yl) benzamide derivatives as potent anticancer agents via ROR1 inhibition” (Bioorg Med Chem, 2025)
